In paper PMC8053125 (2021):

Columns and labels:
[1] = test system: A (CFX aptamer A) (RNA, aptamer) GGGAGACGCAACAGACUAGGUUGUGACUGCUUAGGCAGUUGUGGACGGCUAAGCCCACCAGAGGUCCGUAACUAGUCGCGUCAC; test: stopped-flow fluorescence, global fit; settings: K+ 125 mM, Mg2+ 5 mM; 40 mM HEPES, pH 7.4; association rate, reversible two-step model 4; k-1 1.6±0.2, k2 4±0.2, k-2 2.3±0.2 s^-1
[2] = test system: preRS (RNA, aptamer) GGGAGACGCAACUGAAUGAACAUAAGUGAACGCGACUCUAUCUCCCUAAACUAGGAGUCAUAUAGCGGCACGGAGUUACACGAUCCGUAACUAGUCGCGUCAC; test: stopped-flow fluorescence, global fit; settings: K+ 125 mM, Mg2+ 5 mM; 40 mM HEPES, pH 7.4; association rate, two-step model 5; k-1 5.4±0.4, k2 12.1±0.7 s^-1
[3] = test system: RS (RNA, aptamer) GGGAGACGCACCUGAAUCAACAUACGUGAACGCGACUCUAUCUCCCCAAAUUAGGCGUCAGAUAGCGGCACGGAGUUACACGAUCCGUAACUAGUCGCGUCAC; test: stopped-flow fluorescence, global fit; settings: K+ 125 mM, Mg2+ 5 mM; 40 mM HEPES, pH 7.4; association rate, two-step model 5; k-1 2.9±0.7, k2 23±1 s^-1
[4] = test system: A (CFX aptamer A) (RNA, aptamer) GGGAGACGCAACAGACUAGGUUGUGACUGCUUAGGCAGUUGUGGACGGCUAAGCCCACCAGAGGUCCGUAACUAGUCGCGUCAC; test: fluorescence titration (ligand quenching); settings: K+ 125 mM, Mg2+ 10 mM; 40 mM HEPES, pH 7.4, 25 °C; 50 nM CFX; Mg2+ series

For O=C(O)c1cn(C2CC2)c2cc(N3CCNCC3)c(F)cc2c1=O, the k1 [1] was 10 ± 0.2 µM/s, the k1 [2] was 4.31 ± 0.06 µM/s and the k1 [3] was 7.62 ± 0.11 µM/s. The KD [4] was ~ 13 nM.
